# PMC12736120, “First-in-Human Phase I Clinical Trial of SLC-391, a Novel and Selective AXL Inhibitor, in Patients with Advanced Solid Tumours” (Pharmaceuticals, 2025)
# Like-named read-outs stand apart in the source and are kept apart here.
# Experiment: Plasma pharmacokinetics, QD and BID cohorts (non-compartmental)
# Type: in vivo, human
# Conditions: for Cmin, Mean / Cmin, Median / AUC / AUC(0-t) / Cmax / Tmax: plasma; for AR Factor (accumulation ratio), AUC0–12 / AR Factor (accumulation ratio), AUC0–last / AR Factor (accumulation ratio), Cmax: C1D21 vs C1D1; for AUC / AUC(0-t) / Cmax / Tmax: human, oral
# Method: PK parameters were calculated by standard non-compartmental methods for SLC-391. Due to the long half-life of SLC-391 compared to the dosing interval, it was not possible to calculate a number of PK parameters, including plasma half-life and rate of elimination. Accumulation was assessed from the mean accumulation ratio factor (AR factor) calculated as the repeated dose (C1D21) mean value/single dose (C1D1) mean value for the PK parameters Cmax, AUC0–12, and AUC0–last for each dose group.
# During QD dosing, blood samples for determination of SLC-391 plasma concentrations were collected predose and at 0.5, 1, 2, 3, 4, 6, 8, and 24 h after SLC-391 administration on cycle 1 day 1 (C1D1) and cycle 1 day 21 (C1D21). During BID dosing, blood samples were collected predose and at 1, 2, 3, 4, 6, 8, and 12 h after the first daily dose (before the second daily dose). Where possible, further samples were then collected at 13, 14, 22, and 24 h after the initial dose (predose C1D2). Blood samples were also collected on C1D21 (steady state) predose and at 1, 2, 3, 4, 6, 8, and 12 h after the first daily dose (before the second daily dose). Where possible, further samples were then collected at 13, 14, 22, and 24 h after the initial C1D21 dose (predose C2D1). An additional blood sample was also taken, where possible, at the end of treatment (EOT) visit.
# After collection, blood samples were centrifuged, and plasma was separated and stored at −80 °C. Plasma concentrations of SLC-391 were measured by a validated analytical method involving liquid–liquid extraction followed by high-performance liquid chromatography (HPLC)–mass/mass spectroscopy assay using a Water Quattro Premier tandem quadrupole mass spectroscopy with Waters MassLynx data acquisition and processing software. Plasma analysis was carried out by Microconstants (San Diego, CA, USA) in compliance with the US FDA GLP regulations. The calibration range of the assay was from 0.100 to 100 ng/mL. Quality control samples prepared at 4 different analyte concentrations were analysed with each batch of samples against a separately prepared calibration standard. PK parameters were collected following single (day 1) and repeat dose (day 21) administration. PK parameters were summarised with appropriate descriptive statistics where possible (e.g., mean, geometric mean, median, maximum, minimum, and coefficient of variation). Descriptive PK parameters were determined by standard non-compartmental methods based on the concentration–time data of each subject. The nominal time was used for descriptive statistics calculations, and the actual sample collection times were used in PK analyses. PK analyses were performed using validated Phoenix WinNonlin Professional 8.3 (Certara, L.P., St. Louis, MO, USA).
smiles,measurement,setting,value
"Nc1ncc(-c2cnn(C3CCNCC3)c2)cc1-c1nnc(CC2CC2)o1 [SLC-391, 3-(5-[cyclopropylmethyl]-1,3,4-oxadiazol-2-yl)-5-(1-[piperidin-4-yl]-1H-pyrazol-4-yl)-pyridin-2-amine]","Cmin, Mean","25 mg, QD, C1D21",10.3 ng/mL
same,"Cmin, Median","25 mg, QD, C1D21",7.8 ng/mL
same,"Cmin, Mean","50 mg, QD, C1D21",34.9 ng/mL
same,"Cmin, Median","50 mg, QD, C1D21",34.9 ng/mL
same,Cmin,"75 mg BID, C1D21, mean, n=3, plasma",147.5 ng/mL
same,Cmin,"75 mg BID, C1D21, median, n=3, plasma",128.0 ng/mL
same,"AR Factor (accumulation ratio), AUC0–12",75 mg BID,3.2
same,"AR Factor (accumulation ratio), AUC0–last",75 mg BID,3.2
same,"AR Factor (accumulation ratio), Cmax",75 mg BID,2.4
same,"Cmin, Mean","100 mg, QD, C1D21",151.8 ng/mL
same,"Cmin, Median","100 mg, QD, C1D21",151.8 ng/mL
same,Cmin,"110 mg BID, C1D21, mean, n=3, plasma",145.6 ng/mL
same,Cmin,"110 mg BID, C1D21, median, n=3, plasma",90.2 ng/mL
same,"AR Factor (accumulation ratio), AUC0–12",110 mg BID,3.5
same,"AR Factor (accumulation ratio), AUC0–last",110 mg BID,3.7
same,"AR Factor (accumulation ratio), Cmax",110 mg BID,2.6
same,"Cmin, Mean","125 mg, QD, C1D21",33.7 ng/mL
same,"Cmin, Median","125 mg, QD, C1D21",42.0 ng/mL
same,Cmin,"150 mg BID, C1D21, mean, n=6, plasma",243.5 ng/mL
same,Cmin,"150 mg BID, C1D21, median, n=6, plasma",242.5 ng/mL
same,"AR Factor (accumulation ratio), AUC0–12",150 mg BID,4.4
same,"AR Factor (accumulation ratio), AUC0–last",150 mg BID,3.9
same,"AR Factor (accumulation ratio), Cmax",150 mg BID,2.2
same,"Cmin, Mean","150 mg, QD, C1D21",102.8 ng/mL
same,"Cmin, Median","150 mg, QD, C1D21",89.9 ng/mL
same,Cmin,"200 mg BID, C1D21, mean, n=2, plasma",471.5 ng/mL
same,Cmin,"200 mg BID, C1D21, median, n=2, plasma",471.5 ng/mL
same,"AR Factor (accumulation ratio), AUC0–12",200 mg BID,8.7
same,"AR Factor (accumulation ratio), AUC0–last",200 mg BID,8.0
same,"AR Factor (accumulation ratio), Cmax",200 mg BID,5.0
same,AUC,"25 mg, QD, C1D1, read-out: AUC0–12, Mean",177 ng·h/mL
same,AUC,"25 mg, QD, C1D1, read-out: AUC0–12, Median",211 ng·h/mL
same,AUC(0-t),"25 mg, QD, C1D1, read-out: AUC0–last, Mean",270 ng·h/mL
same,AUC(0-t),"25 mg, QD, C1D1, read-out: AUC0–last, Median",302 ng·h/mL
same,Cmax,"25 mg, QD, C1D1, read-out: Cmax, Mean",32.5 ng/mL
same,Cmax,"25 mg, QD, C1D1, read-out: Cmax, Median",39.6 ng/mL
same,Tmax,"25 mg, QD, C1D1, read-out: Tmax, Mean",2 h
same,Tmax,"25 mg, QD, C1D1, read-out: Tmax, Median",2 h
same,AUC,"25 mg, QD, C1D21, read-out: AUC0–12, Mean",286 ng·h/mL
same,AUC,"25 mg, QD, C1D21, read-out: AUC0–12, Median",232 ng·h/mL
same,AUC(0-t),"25 mg, QD, C1D21, read-out: AUC0–last, Mean",461 ng·h/mL
same,AUC(0-t),"25 mg, QD, C1D21, read-out: AUC0–last, Median",366 ng·h/mL
same,Cmax,"25 mg, QD, C1D21, read-out: Cmax, Mean",41.9 ng/mL
same,Cmax,"25 mg, QD, C1D21, read-out: Cmax, Median",41.2 ng/mL
same,Tmax,"25 mg, QD, C1D21, read-out: Tmax, Mean",2.7 h
same,Tmax,"25 mg, QD, C1D21, read-out: Tmax, Median",2.1 h
same,AUC,"50 mg, QD, C1D1, read-out: AUC0–12, Mean",382 ng·h/mL
same,AUC,"50 mg, QD, C1D1, read-out: AUC0–12, Median",413 ng·h/mL
same,AUC(0-t),"50 mg, QD, C1D1, read-out: AUC0–last, Mean",594 ng·h/mL
same,AUC(0-t),"50 mg, QD, C1D1, read-out: AUC0–last, Median",643 ng·h/mL
same,Cmax,"50 mg, QD, C1D1, read-out: Cmax, Mean",72.9 ng/mL
same,Cmax,"50 mg, QD, C1D1, read-out: Cmax, Median",65.8 ng/mL
same,Tmax,"50 mg, QD, C1D1, read-out: Tmax, Mean",2 h
same,Tmax,"50 mg, QD, C1D1, read-out: Tmax, Median",1 h
same,AUC,"50 mg, QD, C1D21, read-out: AUC0–12, Mean",706 ng·h/mL
same,AUC,"50 mg, QD, C1D21, read-out: AUC0–12, Median",706 ng·h/mL
same,AUC(0-t),"50 mg, QD, C1D21, read-out: AUC0–last, Mean",1210 ng·h/mL
same,AUC(0-t),"50 mg, QD, C1D21, read-out: AUC0–last, Median",1210 ng·h/mL
same,Cmax,"50 mg, QD, C1D21, read-out: Cmax, Mean",99.2 ng/mL
same,Cmax,"50 mg, QD, C1D21, read-out: Cmax, Median",99.2 ng/mL
same,Tmax,"50 mg, QD, C1D21, read-out: Tmax, Mean",1.5 h
same,Tmax,"50 mg, QD, C1D21, read-out: Tmax, Median",1.5 h
same,AUC,"75 mg, 75 mg BID, C1D1, mean, n=3, plasma, read-out: AUC0–12",706 ng·h/mL
same,AUC(0-t),"75 mg, 75 mg BID, C1D1, mean, n=3, plasma, read-out: AUC0–last",1390 ng·h/mL
same,Cmax,"75 mg, 75 mg BID, C1D1, mean, n=3, plasma, read-out: Cmax",114 ng/mL
same,Tmax,"75 mg, 75 mg BID, C1D1, mean, n=3, plasma, read-out: Tmax",9.4 h
same,AUC,"75 mg, 75 mg BID, C1D1, median, n=3, plasma, read-out: AUC0–12",541 ng·h/mL
same,AUC(0-t),"75 mg, 75 mg BID, C1D1, median, n=3, plasma, read-out: AUC0–last",1110 ng·h/mL
same,Cmax,"75 mg, 75 mg BID, C1D1, median, n=3, plasma, read-out: Cmax",93.4 ng/mL
same,Tmax,"75 mg, 75 mg BID, C1D1, median, n=3, plasma, read-out: Tmax",3 h
same,AUC,"75 mg, 75 mg BID, C1D21, mean, n=3, plasma, read-out: AUC0–12",2290 ng·h/mL
same,AUC(0-t),"75 mg, 75 mg BID, C1D21, mean, n=3, plasma, read-out: AUC0–last",4420 ng·h/mL
same,Cmax,"75 mg, 75 mg BID, C1D21, mean, n=3, plasma, read-out: Cmax",267 ng/mL
same,Tmax,"75 mg, 75 mg BID, C1D21, mean, n=3, plasma, read-out: Tmax",3 h
same,AUC,"75 mg, 75 mg BID, C1D21, median, n=3, plasma, read-out: AUC0–12",2290 ng·h/mL
same,AUC(0-t),"75 mg, 75 mg BID, C1D21, median, n=3, plasma, read-out: AUC0–last",4300 ng·h/mL
same,Cmax,"75 mg, 75 mg BID, C1D21, median, n=3, plasma, read-out: Cmax",331 ng/mL
same,Tmax,"75 mg, 75 mg BID, C1D21, median, n=3, plasma, read-out: Tmax",1.9 h
same,AUC,"100 mg, QD, C1D1, n 1, read-out: AUC0–12, Mean",1350 ng·h/mL
same,AUC,"100 mg, QD, C1D1, n 1, read-out: AUC0–12, Median",1350 ng·h/mL
same,AUC(0-t),"100 mg, QD, C1D1, read-out: AUC0–last, Mean",875 ng·h/mL
same,AUC(0-t),"100 mg, QD, C1D1, read-out: AUC0–last, Median",460 ng·h/mL
same,Cmax,"100 mg, QD, C1D1, read-out: Cmax, Mean",141 ng/mL
same,Cmax,"100 mg, QD, C1D1, read-out: Cmax, Median",112 ng/mL
same,Tmax,"100 mg, QD, C1D1, read-out: Tmax, Mean",0.8 h
same,Tmax,"100 mg, QD, C1D1, read-out: Tmax, Median",0.9 h
same,AUC(0-t),"100 mg, QD, C1D21, read-out: AUC0–last, Mean",1800 ng·h/mL
same,AUC(0-t),"100 mg, QD, C1D21, read-out: AUC0–last, Median",1800 ng·h/mL
same,Cmax,"100 mg, QD, C1D21, read-out: Cmax, Mean",436 ng/mL
same,Cmax,"100 mg, QD, C1D21, read-out: Cmax, Median",436 ng/mL
same,Tmax,"100 mg, QD, C1D21, read-out: Tmax, Mean",1.9 h
same,Tmax,"100 mg, QD, C1D21, read-out: Tmax, Median",1.9 h
same,AUC,"110 mg, 110 mg BID, C1D1, mean, n=3, plasma, read-out: AUC0–12",639 ng·h/mL
same,AUC(0-t),"110 mg, 110 mg BID, C1D1, mean, n=3, plasma, read-out: AUC0–last",1170 ng·h/mL
same,Cmax,"110 mg, 110 mg BID, C1D1, mean, n=3, plasma, read-out: Cmax",95.2 ng/mL
same,Tmax,"110 mg, 110 mg BID, C1D1, mean, n=3, plasma, read-out: Tmax",3 h
same,AUC,"110 mg, 110 mg BID, C1D1, median, n=3, plasma, read-out: AUC0–12",593 ng·h/mL
same,AUC(0-t),"110 mg, 110 mg BID, C1D1, median, n=3, plasma, read-out: AUC0–last",1130 ng·h/mL
